Source: US9980943B2, “Methods of treating muscular dystrophy” (BOARD OF REGENTS OF THE NEVADA SYSTEM OF HIGHER EDUCATION, …, priority 2013, dated 2018)

Legend:
Assay type in all cases: cell-based, mouse
[1] = system: β-galactosidase in CMV-LacZ C2C12 myotubes; assay: CMV-LacZ secondary screen in C2C12 myotubes (β-Gal stabilizing assay); details: for CMV-LACZ in Myotubes (β-galactosidase activity relative to DMSO): CMV-LacZ C2C12 myotubes, 96-well format; for CMV-LACZ in Myotubes, signal relative to DMSO: C2C12 CMV-LacZ myotubes, fold relative to DMSO
Text: In order to determine compounds that acted to stabilize β-gal in myogenic cells, a CMV-LacZ C2C12 cell line was used in a secondary screen. The EGFP gene from the pEGFP (Clontech) vector was replaced by LACZ PCR product with digests of the vector/PCR product performed using EcoRI (NEB) and NotI (NEB) and ligated using T4 DNA Ligase (NEB) following standard procedures to produce the CMV-LACZ vector. The LACZ gene was generated by PCR from the pBK-RSV (Stratagene) vector using primers LACZ EcoRI F- and LACZ NotI R-. The CMV-LACZ vector was then digested with AfIII (NEB) to linearize the construct, which was then transfected in C2C12 myoblasts using Lipofectamine 2000 (Invitrogen) following the manufacturer's instructions. […] Clonal lines were selected and screened for βgal levels using the myoblast FDG assay.
The assays were used the original 96-well format and new dose-response curves for myoblasts (N=3-6 replicates for each data point), myotubes (N=3-6 replicates for data point), and CMV-LacZ secondary assay (N=2 replicates for each data point) using concentrations of 0.5 μM, 1 μM, 5 μM, 10 μM, 20 μM, and 40 μM (Tables 9-16).

[2] = system: α7 integrin (LacZ reporter in α7βgal+/− myoblasts); assay: Myoblast α7+/LacZ integrin FDG assay (Burkin assay in myoblasts, 96-well); details: α7+/LacZ myoblasts, 96-well
[3] = system: α7 integrin (LacZ reporter in α7+/LacZ myotubes); assay: Myotube α7 integrin FDG assay (Burkin assay in myotubes, 96-well); details: myotubes

Compound	CMV-LACZ in Myotubes (β-galactosidase activity relative to DMSO) ([1]; 5 uM)	CMV-LACZ in Myotubes (β-galactosidase activity relative to DMSO) ([1]; 10 uM)	CMV-LACZ in Myotubes (β-galactosidase activity relative to DMSO) ([1]; 20 uM)	CMV-LACZ in Myotubes (β-galactosidase activity relative to DMSO) ([1]; 40 uM)	Burkin Assay in Myoblasts, value relative to DMSO ([2]; 0.5 uM)	Burkin Assay in Myoblasts, value relative to DMSO ([2]; 1 uM)	Burkin Assay in Myoblasts, value relative to DMSO ([2]; 5 uM)	Burkin Assay in Myoblasts, value relative to DMSO ([2]; 10 uM)	Burkin Assay in Myoblasts, value relative to DMSO ([2]; 20 uM)	Burkin Assay in Myoblasts, value relative to DMSO ([2]; 40 uM)	Burkin Assay in Myotubes (signal relative to DMSO) ([3]; 0.5 uM)	Burkin Assay in Myotubes (signal relative to DMSO) ([3]; 1 uM)	Burkin Assay in Myotubes (signal relative to DMSO) ([3]; 5 uM)	Burkin Assay in Myotubes (signal relative to DMSO) ([3]; 10 uM)	Burkin Assay in Myotubes (signal relative to DMSO) ([3]; 20 uM)	Burkin Assay in Myotubes (signal relative to DMSO) ([3]; 40 uM)	CMV-LACZ in Myotubes, signal relative to DMSO ([1]; 5 uM)	CMV-LACZ in Myotubes, signal relative to DMSO ([1]; 10 uM)	CMV-LACZ in Myotubes, signal relative to DMSO ([1]; 20 uM)	CMV-LACZ in Myotubes, signal relative to DMSO ([1]; 40 uM)	other results
CSc1ncccc1C(=O)OCC(=O)c1cc(C)n(C)c1C [MLS002245351-01]	0.8306	1.001	1.009	0.9307	1.082	1.037	1.034	0.9704	0.9001	0.8657	1.047	0.9463	1.107	1.042	1.061	1.031					
COC(=O)C1=NNC2(C)C(=O)N(c3ccc(C)cc3)C(=O)C12 (stereo not drawn) [MLS000767227-01]																	1.024	1.1	0.9975	1.1815	Burkin Assay in Myoblasts, signal relative to DMSO ([2]; 0.5 uM): 1.025; Burkin Assay in Myoblasts, signal relative to DMSO ([2]; 1 uM): 0.8073; Burkin Assay in Myoblasts, signal relative to DMSO ([2]; 5 uM): 0.8577; Burkin Assay in Myoblasts, signal relative to DMSO ([2]; 10 uM): 0.9107; Burkin Assay in Myoblasts, signal relative to DMSO ([2]; 20 uM): 0.9133; Burkin Assay in Myoblasts, signal relative to DMSO ([2]; 40 uM): 0.9283; Burkin Assay in Myotubes, α7 integrin LacZ reporter signal relative to DMSO ([3]; 0.5 uM): 0.8593; Burkin Assay in Myotubes, α7 integrin LacZ reporter signal relative to DMSO ([3]; 1 uM): 0.8998; Burkin Assay in Myotubes, α7 integrin LacZ reporter signal relative to DMSO ([3]; 5 uM): 0.9645; Burkin Assay in Myotubes, α7 integrin LacZ reporter signal relative to DMSO ([3]; 10 uM): 0.844; Burkin Assay in Myotubes, α7 integrin LacZ reporter signal relative to DMSO ([3]; 20 uM): 0.7775; Burkin Assay in Myotubes, α7 integrin LacZ reporter signal relative to DMSO ([3]; 40 uM): 0.9434
Cc1ccc(-c2onc3ccc(C(=O)/C=C/N(C)C)cc23)cc1 [MLS001166156-01]	0.8707	0.9198	0.7796	0.5227	0.8005	0.9085	0.7543	0.7601	0.7571	0.3481	1.001	0.8521	1.07	0.7592	0.8218	0.4461					
CS(=O)(=O)Cc1cccc(C(=O)NN(c2ccccc2)c2ccccc2)c1 [MLS001175473-01]	0.8962	0.8587	0.9592	1.066	0.5331	0.3721	0.8732	0.8715	0.899	0.8698	0.9556	0.9177	0.8872	0.9977	1.041	0.7971					
Cc1ccc(NS(=O)(=O)c2ccc3c(c2)NC(=O)CCS3)c(Br)c1 [MLS001095231-01]																	1.035	0.7409	0.9181	0.6229	Burkin Assay in Myoblasts, signal relative to DMSO ([2]; 0.5 uM): 0.9692; Burkin Assay in Myoblasts, signal relative to DMSO ([2]; 1 uM): 0.9682; Burkin Assay in Myoblasts, signal relative to DMSO ([2]; 5 uM): 0.9242; Burkin Assay in Myoblasts, signal relative to DMSO ([2]; 10 uM): 0.8637; Burkin Assay in Myoblasts, signal relative to DMSO ([2]; 20 uM): 0.9197; Burkin Assay in Myoblasts, signal relative to DMSO ([2]; 40 uM): 0.728; Burkin Assay in Myotubes, α7 integrin LacZ reporter signal relative to DMSO ([3]; 0.5 uM): 1.005; Burkin Assay in Myotubes, α7 integrin LacZ reporter signal relative to DMSO ([3]; 1 uM): 0.9382; Burkin Assay in Myotubes, α7 integrin LacZ reporter signal relative to DMSO ([3]; 5 uM): 1.022; Burkin Assay in Myotubes, α7 integrin LacZ reporter signal relative to DMSO ([3]; 10 uM): 0.9695; Burkin Assay in Myotubes, α7 integrin LacZ reporter signal relative to DMSO ([3]; 20 uM): 0.9863; Burkin Assay in Myotubes, α7 integrin LacZ reporter signal relative to DMSO ([3]; 40 uM): 0.8356
CNC(=O)/C(=C\c1cccc(Oc2ccccc2)c1)NC(=O)c1ccccc1 [MLS000389677-01]																	0.8142	0.7418	1.019	0.761	Burkin Assay in Myoblasts, signal relative to DMSO ([2]; 0.5 uM): 0.5325; Burkin Assay in Myoblasts, signal relative to DMSO ([2]; 1 uM): 0.8831; Burkin Assay in Myoblasts, signal relative to DMSO ([2]; 5 uM): 0.8426; Burkin Assay in Myoblasts, signal relative to DMSO ([2]; 10 uM): 0.7976; Burkin Assay in Myoblasts, signal relative to DMSO ([2]; 20 uM): 0.6619; Burkin Assay in Myoblasts, signal relative to DMSO ([2]; 40 uM): 0.6089; Burkin Assay in Myotubes, α7 integrin LacZ reporter signal relative to DMSO ([3]; 0.5 uM): 1.005; Burkin Assay in Myotubes, α7 integrin LacZ reporter signal relative to DMSO ([3]; 1 uM): 0.9156; Burkin Assay in Myotubes, α7 integrin LacZ reporter signal relative to DMSO ([3]; 5 uM): 1.109; Burkin Assay in Myotubes, α7 integrin LacZ reporter signal relative to DMSO ([3]; 10 uM): 0.9956; Burkin Assay in Myotubes, α7 integrin LacZ reporter signal relative to DMSO ([3]; 20 uM): 0.6421; Burkin Assay in Myotubes, α7 integrin LacZ reporter signal relative to DMSO ([3]; 40 uM): 0.953
